Tests used:
Assay type in all cases: biochemical
NMDAR2C = molecular target: T1, NMDAR2C (Homo sapiens, UniProt Q14957); test: NMDAR agonist assay, [3H]MK-801 binding, NMDAR2C expressing HEK cell membranes; details: 50 μM glutamate; relative to 1 mM glycine
T1 construct: expressed in transfected cells; host or cells: HEK cells (membrane extract)
Experimental: (§1) Assays were conducted as described by Moskal et al., “GLYX-13: a monoclonal antibody-derived peptide that acts as an N-methyl-D-aspartate receptor modulator,” Neuropharmacology, 49, 1077-87, 2005. These studies were designed to determine if the test compounds act to facilitate NMDAR activation in NMDAR2A, NMDAR2B, NMDAR2C or NMDAR2D expressing HEK cell membranes as measured by increases in [^3H]MK-801 binding.
(§2) In the assay, 300 μg of NMDAR expressing HEK cell membrane extract protein was preincubated for 15 minutes at […] in the presence of saturating concentrations of glutamate (50 μM) and varying concentrations of test compound (1×10^−15M-1×10^−7M), or 1 mM glycine. Following the addition of 0.3 μCi of [3H]MK-801 (22.5 Ci/mmol), reactions were again incubated for 15 minutes at 25° C. (nonequilibrium conditions). Bound and free [3H]MK-801 were separated via rapid filtration using a Brandel apparatus.
(§3) In analyzing the data, the DPM (disintegrations per minute) of [3H]MK-801 remaining on the filter were measured for each concentration of test compound or for 1 mM glycine. The DPM values for each concentration of a ligand (N=2) were averaged. The baseline value was determined from the best fit curve of the DPM values modeled using the GraphPad program and the log(agonist) vs. response (three parameters) algorithm was then subtracted from all points in the dataset. The % maximal [^3H]MK-801 binding was then calculated relative to that of 1 mM glycine: all baseline subtracted DPM values were divided by the average value for 1 mM glycine. The EC50 and % maximal activity were then obtained from the best fit curve of the % maximal [3H]MK-801 binding data modelled using the GraphPad program and the log(agonist) vs. response (three parameters) algorithm.
(§4) The tables below summarize the results for the wild type […] NMDAR2A, NMDAR2B, NMDAR2C, and NMDAR2D, and whether the compound is not an agonist (−), is an agonist (+), or is a strong agonist (++), where column A is based on the % maximal [3H]MK-801 binding relative to 1 mM glycine (−=0; <100%=+; and >100%=++); and column B is based on log EC50 values (0=−; ≥1×10^−9 M (e.g., −8)=+; and <1×10^−9 M (e.g., −10)=++).

NMDAR2B = molecular target: T2, NMDAR2B (Homo sapiens, UniProt Q13224); test: NMDAR agonist assay, [3H]MK-801 binding, NMDAR2B expressing HEK cell membranes; details: 50 μM glutamate
T2 construct: expressed in transfected cells; host or cells: HEK cells (membrane extract)
T2 sequence (Q13224 27-1484, species assumed, other chains not shown): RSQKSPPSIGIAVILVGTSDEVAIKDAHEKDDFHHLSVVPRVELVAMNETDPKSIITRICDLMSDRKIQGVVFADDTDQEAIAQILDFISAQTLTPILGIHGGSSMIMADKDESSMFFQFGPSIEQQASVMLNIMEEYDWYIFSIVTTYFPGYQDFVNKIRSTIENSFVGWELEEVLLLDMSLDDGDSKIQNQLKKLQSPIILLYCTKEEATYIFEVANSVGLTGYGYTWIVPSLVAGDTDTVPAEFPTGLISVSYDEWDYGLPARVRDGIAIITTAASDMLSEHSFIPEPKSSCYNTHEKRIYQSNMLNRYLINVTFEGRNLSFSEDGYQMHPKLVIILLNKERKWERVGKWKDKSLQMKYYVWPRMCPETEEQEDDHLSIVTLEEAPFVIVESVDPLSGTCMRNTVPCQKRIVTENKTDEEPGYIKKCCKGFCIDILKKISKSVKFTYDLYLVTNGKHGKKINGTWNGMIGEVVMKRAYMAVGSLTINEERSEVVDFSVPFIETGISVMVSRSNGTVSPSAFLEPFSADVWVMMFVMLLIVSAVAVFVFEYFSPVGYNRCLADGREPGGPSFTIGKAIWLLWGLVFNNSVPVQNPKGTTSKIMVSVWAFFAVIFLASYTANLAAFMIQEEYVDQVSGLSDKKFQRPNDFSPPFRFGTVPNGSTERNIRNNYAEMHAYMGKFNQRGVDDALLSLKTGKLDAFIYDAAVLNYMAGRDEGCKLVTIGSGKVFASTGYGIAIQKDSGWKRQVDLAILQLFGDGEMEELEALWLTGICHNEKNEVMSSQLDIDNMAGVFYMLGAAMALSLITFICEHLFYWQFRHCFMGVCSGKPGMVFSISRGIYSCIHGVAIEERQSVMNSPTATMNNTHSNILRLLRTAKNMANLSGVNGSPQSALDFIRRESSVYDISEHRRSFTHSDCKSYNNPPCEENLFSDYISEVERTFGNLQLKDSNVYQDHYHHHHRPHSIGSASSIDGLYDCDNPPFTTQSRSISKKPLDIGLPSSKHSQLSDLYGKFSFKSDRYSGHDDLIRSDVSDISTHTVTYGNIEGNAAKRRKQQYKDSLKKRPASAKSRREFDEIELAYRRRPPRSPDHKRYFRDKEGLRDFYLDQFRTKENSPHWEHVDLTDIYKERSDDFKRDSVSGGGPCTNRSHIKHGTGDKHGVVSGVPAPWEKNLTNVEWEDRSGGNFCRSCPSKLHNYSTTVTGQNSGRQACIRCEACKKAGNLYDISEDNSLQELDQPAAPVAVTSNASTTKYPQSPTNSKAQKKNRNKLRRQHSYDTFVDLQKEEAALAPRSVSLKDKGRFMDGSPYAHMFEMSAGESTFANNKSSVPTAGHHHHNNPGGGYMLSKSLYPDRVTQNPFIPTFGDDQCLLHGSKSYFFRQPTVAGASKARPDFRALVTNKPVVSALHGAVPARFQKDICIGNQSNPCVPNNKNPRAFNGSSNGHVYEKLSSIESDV
Procedure, shortened: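 Membranes from HEK cells (300 μg protein) preincubated 15 min with 50 μM glutamate plus compound (1×10^−15–1×10^−7 M) or 1 mM glycine, then with 0.3 μCi [3H]MK-801 for 15 min at 25° C. (nonequilibrium); filter-bound DPM, baseline-subtracted, expressed as % of 1 mM glycine; EC50 and % maximum from three-parameter fit.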

NMDAR2D [1] = molecular target: T3, NMDAR2D (Homo sapiens, UniProt O15399+Q05586); test: NMDAR agonist assay, [3H]MK-801 binding, NMDAR2D expressing HEK cell membranes; details: 50 μM glutamate; read-out: NMDAR2D B: log EC50 (converted)
T3 construct: expressed in transfected cells; host or cells: HEK cells (membrane extract)
T3 sequence (O15399 28-1336, species assumed, other chains not shown): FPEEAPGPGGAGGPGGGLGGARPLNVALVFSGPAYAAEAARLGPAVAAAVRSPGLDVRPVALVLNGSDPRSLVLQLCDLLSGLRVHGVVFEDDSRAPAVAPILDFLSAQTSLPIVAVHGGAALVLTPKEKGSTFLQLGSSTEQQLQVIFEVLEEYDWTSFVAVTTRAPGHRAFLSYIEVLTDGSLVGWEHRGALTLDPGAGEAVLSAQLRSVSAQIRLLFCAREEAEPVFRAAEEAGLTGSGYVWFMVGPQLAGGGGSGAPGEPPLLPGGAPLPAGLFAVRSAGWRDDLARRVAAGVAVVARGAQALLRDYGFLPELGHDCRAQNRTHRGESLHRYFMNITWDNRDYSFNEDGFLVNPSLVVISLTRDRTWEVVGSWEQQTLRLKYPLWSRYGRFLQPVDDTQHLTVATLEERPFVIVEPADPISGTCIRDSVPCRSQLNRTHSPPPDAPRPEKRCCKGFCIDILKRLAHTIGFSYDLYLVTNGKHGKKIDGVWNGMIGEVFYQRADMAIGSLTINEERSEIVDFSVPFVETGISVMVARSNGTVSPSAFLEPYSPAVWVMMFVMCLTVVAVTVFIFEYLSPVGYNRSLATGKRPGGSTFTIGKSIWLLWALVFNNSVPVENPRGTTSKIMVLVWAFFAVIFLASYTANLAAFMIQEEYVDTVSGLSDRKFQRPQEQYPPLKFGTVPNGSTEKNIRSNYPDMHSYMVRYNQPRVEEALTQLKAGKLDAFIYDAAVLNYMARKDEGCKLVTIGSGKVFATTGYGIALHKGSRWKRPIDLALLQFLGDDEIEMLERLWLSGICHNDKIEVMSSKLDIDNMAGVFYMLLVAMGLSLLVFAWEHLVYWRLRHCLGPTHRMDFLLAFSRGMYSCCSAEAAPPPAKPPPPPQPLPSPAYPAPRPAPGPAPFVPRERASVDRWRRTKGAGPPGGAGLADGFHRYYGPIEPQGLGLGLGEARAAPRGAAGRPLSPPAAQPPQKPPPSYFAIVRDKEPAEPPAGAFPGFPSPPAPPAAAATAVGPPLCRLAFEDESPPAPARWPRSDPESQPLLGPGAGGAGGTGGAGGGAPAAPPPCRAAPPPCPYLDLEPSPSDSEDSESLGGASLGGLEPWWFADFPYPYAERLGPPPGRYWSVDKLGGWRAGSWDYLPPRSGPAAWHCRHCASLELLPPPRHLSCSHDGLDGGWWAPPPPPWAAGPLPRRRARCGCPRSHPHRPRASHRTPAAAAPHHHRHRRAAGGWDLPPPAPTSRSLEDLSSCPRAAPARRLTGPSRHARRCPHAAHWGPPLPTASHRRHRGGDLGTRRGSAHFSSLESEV
Experimental: as §1, §2, §3, §4

NMDAR2D [2] = molecular target: T4, NMDAR2D (Homo sapiens, UniProt O15399); test: as above; details: 50 μM glutamate; relative to 1 mM glycine
T4 construct: expressed in transfected cells; host or cells: HEK cells (membrane extract)
T4 sequence (O15399 28-1336, species assumed, other chains not shown): as above
Experimental: as §1, §2, §3, §4

T1 sequence (Q14957 20-1233, species assumed, other chains not shown): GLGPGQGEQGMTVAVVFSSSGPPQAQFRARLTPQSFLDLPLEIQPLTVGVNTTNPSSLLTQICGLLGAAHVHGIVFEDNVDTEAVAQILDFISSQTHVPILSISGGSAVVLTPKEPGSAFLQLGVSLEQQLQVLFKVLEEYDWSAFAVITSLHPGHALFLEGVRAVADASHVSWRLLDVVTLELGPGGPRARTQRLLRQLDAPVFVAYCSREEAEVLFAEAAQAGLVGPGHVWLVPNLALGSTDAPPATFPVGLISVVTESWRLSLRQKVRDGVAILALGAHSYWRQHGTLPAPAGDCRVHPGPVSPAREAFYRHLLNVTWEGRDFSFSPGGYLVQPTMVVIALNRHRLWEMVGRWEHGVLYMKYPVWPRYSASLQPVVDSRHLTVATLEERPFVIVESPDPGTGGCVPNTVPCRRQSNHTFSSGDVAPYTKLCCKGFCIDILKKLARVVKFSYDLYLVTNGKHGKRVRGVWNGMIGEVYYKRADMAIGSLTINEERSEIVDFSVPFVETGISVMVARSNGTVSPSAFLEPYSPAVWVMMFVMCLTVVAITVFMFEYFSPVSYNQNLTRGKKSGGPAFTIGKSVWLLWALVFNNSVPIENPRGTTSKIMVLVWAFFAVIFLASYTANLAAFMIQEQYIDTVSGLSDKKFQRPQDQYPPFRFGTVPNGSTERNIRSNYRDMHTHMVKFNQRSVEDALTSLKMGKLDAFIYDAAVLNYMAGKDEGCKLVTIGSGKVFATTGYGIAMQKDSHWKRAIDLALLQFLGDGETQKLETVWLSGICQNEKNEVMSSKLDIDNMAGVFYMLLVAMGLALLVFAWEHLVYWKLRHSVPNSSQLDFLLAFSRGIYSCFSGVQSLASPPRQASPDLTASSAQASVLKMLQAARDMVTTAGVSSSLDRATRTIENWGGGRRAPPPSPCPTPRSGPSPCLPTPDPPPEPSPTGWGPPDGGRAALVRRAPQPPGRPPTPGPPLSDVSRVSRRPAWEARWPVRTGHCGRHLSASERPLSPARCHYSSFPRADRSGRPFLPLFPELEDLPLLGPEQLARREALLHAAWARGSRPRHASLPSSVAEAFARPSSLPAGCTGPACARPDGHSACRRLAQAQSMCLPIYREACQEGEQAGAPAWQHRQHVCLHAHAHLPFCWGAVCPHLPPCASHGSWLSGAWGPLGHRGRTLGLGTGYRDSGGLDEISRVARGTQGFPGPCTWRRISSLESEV

In the case of `O=C1NCC=CC[C@]12CCCN2` [GA, (R)-1,7-diazaspiro[4.6]undec-9-en-6-one], the “NMDAR2C A: % maximal [3H]MK-801 binding relative to 1 mM glycine” value (NMDAR2C) is reported as 0%, the EC50 (NMDAR2B; read-out: NMDAR2B B: log EC50 (converted)) is reported as ≥ 1 nM and the Emax (NMDAR2B; relative to 1 mM glycine, read-out: NMDAR2B A: % maximal [3H]MK-801 binding relative to 1 mM glycine) is reported as < 100%. For the same compound, the EC50 (NMDAR2D [1]) was < 1 nM and the “NMDAR2D A: % maximal [3H]MK-801 binding relative to 1 mM glycine” value (NMDAR2D [2]) was “+ (<100%=+)”.
